For this assay, the target named is human adenosine A2a receptor (Homo sapiens (Human), UniProt P29274). Kind of assay: A2a receptor binding affinity, [3H]-NECA radioligand binding test. As to conditions: [3H]-NECA 37 nM; membrane from HEK-293 cells transfected with human adenosine A2a receptor. The gist of the method:
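IC50 values (μM) come from displacement of [3H]-NECA, used at 37 nM final, on human A2a receptor membranes from transfected HEK-293 cells. Incubation lasted one hour at room temperature in Tris/MgCl2/EDTA buffer, pH 7.4; filter-bound radioactivity was counted by scintillation.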
Sequence of human adenosine A2a receptor (P29274 whole entry): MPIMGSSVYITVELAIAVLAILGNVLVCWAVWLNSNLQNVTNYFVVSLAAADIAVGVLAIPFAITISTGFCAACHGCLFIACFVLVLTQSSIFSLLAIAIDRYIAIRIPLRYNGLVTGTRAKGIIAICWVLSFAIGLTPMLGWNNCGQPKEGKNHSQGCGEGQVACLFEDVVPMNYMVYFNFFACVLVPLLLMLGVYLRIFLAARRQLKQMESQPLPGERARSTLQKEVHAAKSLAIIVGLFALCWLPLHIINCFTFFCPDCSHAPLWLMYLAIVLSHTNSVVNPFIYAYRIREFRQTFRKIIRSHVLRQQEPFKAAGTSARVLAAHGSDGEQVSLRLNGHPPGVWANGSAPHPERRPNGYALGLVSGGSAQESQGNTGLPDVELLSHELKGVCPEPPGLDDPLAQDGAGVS
The term IC50 denotes the point on the concentration scale where inhibition reaches its midpoint. Low readings indicate higher potency, high ones lower potency. As to `Cc1ccc(-c2nc3nc(N4CCC[C@H]4C(=O)N4CCN(CCCC(F)(F)F)CC4)nc(N)n3n2)o1` [Example 300, (S)-(1-(7-amino-2-(5-methylfuran-2-yl)-[1,2,4]triazolo[1,5-a][1,3,5]triazin-5-yl)pyrrolidin-2-yl)(4-(4,4,4-trifluorobutyl)piperazin-1-yl)methanone], the IC50 was found to be 9 nM.
Compound `CCCCCCN1CCN(C(=O)[C@@H]2CCCN2c2nc(N)n3nc(-c4ccco4)nc3n2)CC1` [Example 301, (S)-(1-(7-amino-2-(furan-2-yl)-[1,2,4]triazolo[1,5-a][1,3,5]triazin-5-yl)pyrrolidin-2-yl)(4-hexylpiperazin-1-yl)methanone] gave an IC50 of 3 nM.
With `CC(C)(O)CN1CCN(C(=O)[C@@H]2CCCN2c2nc(N)n3nc(-c4ccco4)nc3n2)CC1` [Example 302, (S)-(1-(7-amino-2-(furan-2-yl)-[1,2,4]triazolo[1,5-a][1,3,5]triazin-5-yl)pyrrolidin-2-yl)(4-(2-hydroxy-2-methylpropyl)piperazin-1-yl)methanone] the figure was 6 nM; with `COC[C@H](Nc1nc(N)n2nc(-c3ccco3)nc2n1)C(=O)N1CCN(CC(C)(C)F)CC1` [Example 303, (S)-2-((7-amino-2-(furan-2-yl)-[1,2,4]triazolo[1,5-a][1,3,5]triazin-5-yl)amino)-1-(4-(2-fluoro-2-methylpropyl)piperazin-1-yl)-3-methoxypropan-1-one], 6 nM; with `COC[C@H](Nc1nc(N)n2nc(-c3ccco3)nc2n1)C(=O)N1CCN(c2ncccn2)CC1` [Example 304, (S)-2-((7-amino-2-(furan-2-yl)-[1,2,4]triazolo[1,5-a][1,3,5]triazin-5-yl)amino)-3-methoxy-1-(4-(pyrimidin-2-yl)piperazin-1-yl)propan-1-one], 11 nM.
Regarding `COC[C@H](Nc1nc(N)n2nc(-c3ccco3)nc2n1)C(=O)N1CCN(c2nccs2)CC1` [Example 305, (S)-2-((7-amino-2-(furan-2-yl)-[1,2,4]triazolo[1,5-a][1,3,5]triazin-5-yl)amino)-3-methoxy-1-(4-(thiazol-2-yl)piperazin-1-yl)propan-1-one], the IC50 worked out at 16 nM.
`COC[C@H](Nc1nc(N)n2nc(-c3ccco3)nc2n1)C(=O)N1CCN(CC(F)(F)F)CC1` [Example 306, (S)-2-((7-amino-2-(furan-2-yl)-[1,2,4]triazolo[1,5-a][1,3,5]triazin-5-yl)amino)-3-methoxy-1-(4-(2,2,2-trifluoroethyl)piperazin-1-yl)propan-1-one]: the half-maximal inhibitory concentration (IC50) was found to be 30 nM.
`CCOC[C@H](Nc1nc(N)n2nc(-c3ccco3)nc2n1)C(=O)N1CCN(c2ncccn2)CC1` [Example 307, (S)-2-((7-amino-2-(furan-2-yl)-[1,2,4]triazolo[1,5-a][1,3,5]triazin-5-yl)amino)-3-ethoxy-1-(4-(pyrimidin-2-yl)piperazin-1-yl)propan-1-one]: the IC50 is 7 nM.
In turn, `CCOC[C@H](Nc1nc(N)n2nc(-c3ccco3)nc2n1)C(=O)N1CCN(CC(F)(F)F)CC1` [Example 308, (S)-2-((7-amino-2-(furan-2-yl)-[1,2,4]triazolo[1,5-a][1,3,5]triazin-5-yl)amino)-3-ethoxy-1-(4-(2,2,2-trifluoroethyl)piperazin-1-yl)propan-1-one] came in with an IC50 of 13 nM.
In turn, `Nc1nc(N2CCC[C@H]2C(=O)N2CCn3nc(C(F)(F)F)nc3C2)nc2nc(-c3ccco3)nn12` [Example 309] showed an IC50 of 21 nM.
The same measure for `COCCOc1ccc(N2CCN(C(=O)[C@@H]3CCCN3c3nc(N)n4nc(-c5ccco5)nc4n3)CC2)cc1` [Example 310, (S)-(1-(7-amino-2-(furan-2-yl)-[1,2,4]triazolo[1,5-a][1,3,5]triazin-5-yl)pyrrolidin-2-yl)(4-(4-(2-methoxyethoxy)phenyl)piperazin-1-yl)methanone]: 12 nM; for `Cc1ccc(-c2nc3nc(N4CCC[C@H]4C(=O)N4CCN(CC(C)(F)F)CC4)nc(N)n3n2)o1` [Example 311, (S)-(1-(7-amino-2-(5-methylfuran-2-yl)-[1,2,4]triazolo[1,5-a][1,3,5]triazin-5-yl)pyrrolidin-2-yl)(4-(2,2-difluoropropyl)piperazin-1-yl)methanone]: 2 nM.
With `Cc1ccc(-c2nc3nc(N4CC[C@H]4C(=O)N4CCN(CC(F)(F)C(F)F)CC4)nc(N)n3n2)o1` [Example 312, (S)-(1-(7-amino-2-(5-methylfuran-2-yl)-[1,2,4]triazolo[1,5-a][1,3,5]triazin-5-yl)azetidin-2-y1)(4-(2,2,3,3-tetrafluoropropyl)piperazin-1-yl)methanone] the figure was 2 nM; with `Cc1ccc(-c2nc3nc(N4CC[C@H]4C(=O)N4CCN(CC(F)(F)C(F)(F)F)CC4)nc(N)n3n2)o1` [Example 313, (S)-(1-(7-amino-2-(5-methylfuran-2-yl)-[1,2,4]triazolo[1,5-a][1,3,5]triazin-5-yl)azetidin-2-yl)(4-(2,2,3,3,3-pentafluoropropyl)piperazin-1-yl)methanone], 5 nM.
The same measure for `Cc1ccc(-c2nc3nc(N4CC[C@H]4C(=O)N4CCN(CC(C)(F)F)CC4)nc(N)n3n2)o1` [Example 314, (S)-(1-(7-amino-2-(5-methylfuran-2-yl)-[1,2,4]triazolo[1,5-a][1,3,5]triazin-5-yl)azetidin-2-yl)(4-(2,2-difluoropropyl)piperazin-1-yl)methanone]: 19 nM.
Regarding `Cc1ccc(-c2nc3nc(N4CC[C@H]4C(=O)N4CCN(C(=O)CC(C)(C)O)CC4)nc(N)n3n2)o1` [Example 315, (S)-1-(4-(1-(7-amino-2-(5-methylfuran-2-yl)-[1,2,4]triazolo[1,5-a][1,3,5]triazin-5-yl)azetidine-2-carbonyl)piperazin-1-yl)-3-hydroxy-3-methylbutan-1-one], the 50% inhibitory concentration (IC50) was determined as 16 nM.
The same measure for `C[C@H](Nc1nc(N)n2nc(-c3ccco3)nc2n1)C(=O)N1CCN(CC(F)F)CC1` [Example 316, (S)-2-((7-amino-2-(furan-2-yl)-[1,2,4]triazolo[1,5-a][1,3,5]triazin-5-yl)amino)-1-(4-(2,2-difluoroethyl)piperazin-1-yl)propan-1-one]: 26 nM.
The compound `C[C@H](Nc1nc(N)n2nc(-c3ccco3)nc2n1)C(=O)N1CCN(CC(C)(F)F)CC1` [Example 317, (S)-2-((7-amino-2-(furan-2-yl)-[1,2,4]triazolo[1,5-a][1,3,5]triazin-5-yl)amino)-1-(4-(2,2-difluoropropyl)piperazin-1-yl)propan-1-one] registered an IC50 of 13 nM.
With `C[C@H](Nc1nc(N)n2nc(-c3ccco3)nc2n1)C(=O)N1CCN(CC(F)(F)C(F)F)CC1` [Example 318, (S)-2-((7-amino-2-(furan-2-yl)-[1,2,4]triazolo[1,5-a][1,3,5]triazin-5-yl)amino)-1-(4-(2,2,3,3-tetrafluoropropyl)piperazin-1-yl)propan-1-one] the figure was 19 nM; with `C[C@H](Nc1nc(N)n2nc(-c3ccco3)nc2n1)C(=O)N1CCN(CC(F)(F)C(F)(F)F)CC1` [Example 319, (S)-2-((7-amino-2-(furan-2-yl)-[1,2,4]triazolo[1,5-a][1,3,5]triazin-5-yl)amino)-1-(4-(2,2,3,3,3-pentafluoropropyl)piperazin-1-yl)propan-1-one], 15 nM.
In turn, `C[C@H](Nc1nc(N)n2nc(-c3ccco3)nc2n1)C(=O)N1CCN(CC(F)(F)C(F)(F)C(F)(F)F)CC1` [Example 320, (S)-2-((7-amino-2-(furan-2-yl)-[1,2,4]triazolo[1,5-a][1,3,5]triazin-5-yl)amino)-1-(4-(2,2,3,3,4,4,4-heptafluorobutyl)piperazin-1-yl)propan-1-one] gave a half-maximal inhibitory concentration (IC50) of 2 nM.
In turn, `Cn1cc(N2CCN(C(=O)[C@@H]3CCCN3c3nc(N)n4nc(-c5ccco5)nc4n3)CC2)cn1` [Example 321, (S)-(1-(7-amino-2-(furan-2-yl)-[1,2,4]triazolo[1,5-a][1,3,5]triazin-5-yl)pyrrolidin-2-yl)(4-(1-methyl-1H-pyrazol-4-yl)piperazin-1-yl)methanone] showed an IC50 of 2 nM.
Consider `CC(C)(F)CN1CCC(C2CCN(C(=O)[C@@H]3CCN3c3nc(N)n4nc(-c5ccco5)nc4n3)CC2)CC1` [Example 322, (S)-(1-(7-amino-2-(furan-2-yl)-[1,2,4]triazolo[1,5-a][1,3,5]triazin-5-yl)azetidin-2-yl)(1′-(2-fluoro-2-methylpropyl)-[4,4′-bipiperidin]-1-yl) methanone], for which the IC50 is 6 nM.
With `Nc1nc(N2CC[C@H]2C(=O)N2CCC(C3CCN(CC(F)F)CC3)CC2)nc2nc(-c3ccco3)nn12` [Example 323, (S)-(1-(7-amino-2-(furan-2-yl)-[1,2,4]triazolo[1,5-a][1,3,5]triazin-5-yl)azetidin-2-yl)(1′-(2,2-difluoroethyl)-[4,4′-bipiperidin]-1-yl)methanone] the figure was 3 nM; with `CC(F)(F)CN1CCC(C2CCN(C(=O)[C@@H]3CCN3c3nc(N)n4nc(-c5ccco5)nc4n3)CC2)CC1` [Example 324, (S)-(1-(7-amino-2-(furan-2-yl)-[1,2,4]triazolo[1,5-a][1,3,5]triazin-5-yl)azetidin-2-yl)(1′-(2,2-difluoropropyl)-[4,4′-bipiperidin]-1-yl)methanone], 5 nM.
In turn, `Nc1nc(N2CC[C@H]2C(=O)N2CCC(C3CCN(CC(F)(F)C(F)F)CC3)CC2)nc2nc(-c3ccco3)nn12` [Example 325, (S)-(1-(7-amino-2-(furan-2-yl)-[1,2,4]triazolo[1,5-a][1,3,5]triazin-5-yl)azetidin-2-yl)(1′-(2,2,3,3-tetrafluoropropyl)-[4,4′-bipiperidin]-1-yl)methanone] yielded a 50% inhibitory concentration (IC50) of 8 nM.
Take `Nc1nc(N2CC[C@H]2C(=O)N2CCC(C3CCN(CC(F)(F)C(F)(F)F)CC3)CC2)nc2nc(-c3ccco3)nn12` [Example 326, (S)-(1-(7-amino-2-(furan-2-yl)-[1,2,4]triazolo[1,5-a][1,3,5]triazin-5-yl)azetidin-2-yl)(1′-(2,2,3,3,3-pentafluoropropyl)-[4,4′-bipiperidin]-1-yl)methanone]: the IC50 is 0.8 nM.

These data come from patent publication US20240217978A1 (CHONG KUN DANG PHARMACEUTICAL CORP., priority 2021, published 2024).
